From ChEMBL document CHEMBL3124838, “Discovery of 6-aryl-azabenzimidazoles that inhibit the TBK1/IKK-ε kinases” (Bioorg Med Chem Lett, 2014)

How the values were obtained:
[1] = target: CDK9/cyclin T1 (Homo sapiens) (UniProt O60563+P50750); assay: Inhibition of human CDK9/cyclin T1 assessed as residual activity at 1 uM relative to control; assay type: protein-complex assay
[2] = target: Tyrosine-protein kinase Fer (Homo sapiens) (UniProt P16591); assay: Inhibition of human FER assessed as residual activity at 1 uM relative to control
Sequence of Tyrosine-protein kinase Fer (Homo sapiens) (P16591 whole entry, looked up): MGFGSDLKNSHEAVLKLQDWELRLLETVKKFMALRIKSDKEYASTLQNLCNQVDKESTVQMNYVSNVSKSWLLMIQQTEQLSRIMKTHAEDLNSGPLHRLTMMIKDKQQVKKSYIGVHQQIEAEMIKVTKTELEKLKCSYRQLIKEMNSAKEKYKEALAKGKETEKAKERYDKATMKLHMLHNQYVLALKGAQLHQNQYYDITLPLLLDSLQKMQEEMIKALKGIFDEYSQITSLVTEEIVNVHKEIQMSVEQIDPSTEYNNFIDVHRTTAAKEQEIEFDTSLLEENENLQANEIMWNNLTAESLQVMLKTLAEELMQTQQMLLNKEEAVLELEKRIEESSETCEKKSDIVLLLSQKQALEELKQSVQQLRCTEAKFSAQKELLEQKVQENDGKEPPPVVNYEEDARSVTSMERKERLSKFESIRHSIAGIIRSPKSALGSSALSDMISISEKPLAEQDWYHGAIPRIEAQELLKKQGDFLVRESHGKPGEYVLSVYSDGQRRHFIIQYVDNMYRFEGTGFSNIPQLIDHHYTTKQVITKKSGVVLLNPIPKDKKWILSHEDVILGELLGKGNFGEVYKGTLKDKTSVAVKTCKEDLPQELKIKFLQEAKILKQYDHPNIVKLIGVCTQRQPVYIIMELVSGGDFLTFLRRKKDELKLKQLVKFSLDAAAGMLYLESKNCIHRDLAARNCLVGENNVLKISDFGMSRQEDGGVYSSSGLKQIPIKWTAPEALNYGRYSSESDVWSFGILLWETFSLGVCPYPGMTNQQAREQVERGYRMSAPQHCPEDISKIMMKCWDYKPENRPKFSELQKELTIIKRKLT

[3] = target: Serine/threonine-protein kinase PAK 4 (Homo sapiens) (UniProt O96013); assay: Inhibition of human PAK4 assessed as residual activity at 1 uM relative to control
Sequence of Serine/threonine-protein kinase PAK 4 (Homo sapiens) (O96013 whole entry, looked up): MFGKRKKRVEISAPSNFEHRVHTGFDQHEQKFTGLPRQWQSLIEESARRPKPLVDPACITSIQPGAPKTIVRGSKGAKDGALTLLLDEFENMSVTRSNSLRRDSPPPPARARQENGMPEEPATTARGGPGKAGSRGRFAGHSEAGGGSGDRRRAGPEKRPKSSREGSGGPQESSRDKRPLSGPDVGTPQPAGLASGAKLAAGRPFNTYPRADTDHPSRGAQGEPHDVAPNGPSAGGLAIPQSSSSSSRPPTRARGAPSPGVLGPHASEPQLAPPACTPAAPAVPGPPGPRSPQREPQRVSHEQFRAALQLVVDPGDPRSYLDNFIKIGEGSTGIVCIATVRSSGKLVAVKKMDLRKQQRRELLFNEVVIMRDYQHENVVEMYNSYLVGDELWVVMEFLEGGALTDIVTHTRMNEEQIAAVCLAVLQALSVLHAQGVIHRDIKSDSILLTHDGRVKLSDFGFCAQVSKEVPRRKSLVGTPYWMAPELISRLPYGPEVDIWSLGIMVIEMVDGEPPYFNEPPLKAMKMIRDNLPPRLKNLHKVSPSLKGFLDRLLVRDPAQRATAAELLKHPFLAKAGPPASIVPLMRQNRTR

[4] = target: ALK tyrosine kinase receptor (Homo sapiens) (UniProt Q9UM73); assay: Inhibition of human ALK assessed as residual activity at 1 uM relative to control
[5] = target: T1, Eukaryotic elongation factor 2 kinase (Homo sapiens) (UniProt O00418); assay: Inhibition of human eEF-2K assessed as residual activity at 1 uM relative to control
T1 sequence (whole entry): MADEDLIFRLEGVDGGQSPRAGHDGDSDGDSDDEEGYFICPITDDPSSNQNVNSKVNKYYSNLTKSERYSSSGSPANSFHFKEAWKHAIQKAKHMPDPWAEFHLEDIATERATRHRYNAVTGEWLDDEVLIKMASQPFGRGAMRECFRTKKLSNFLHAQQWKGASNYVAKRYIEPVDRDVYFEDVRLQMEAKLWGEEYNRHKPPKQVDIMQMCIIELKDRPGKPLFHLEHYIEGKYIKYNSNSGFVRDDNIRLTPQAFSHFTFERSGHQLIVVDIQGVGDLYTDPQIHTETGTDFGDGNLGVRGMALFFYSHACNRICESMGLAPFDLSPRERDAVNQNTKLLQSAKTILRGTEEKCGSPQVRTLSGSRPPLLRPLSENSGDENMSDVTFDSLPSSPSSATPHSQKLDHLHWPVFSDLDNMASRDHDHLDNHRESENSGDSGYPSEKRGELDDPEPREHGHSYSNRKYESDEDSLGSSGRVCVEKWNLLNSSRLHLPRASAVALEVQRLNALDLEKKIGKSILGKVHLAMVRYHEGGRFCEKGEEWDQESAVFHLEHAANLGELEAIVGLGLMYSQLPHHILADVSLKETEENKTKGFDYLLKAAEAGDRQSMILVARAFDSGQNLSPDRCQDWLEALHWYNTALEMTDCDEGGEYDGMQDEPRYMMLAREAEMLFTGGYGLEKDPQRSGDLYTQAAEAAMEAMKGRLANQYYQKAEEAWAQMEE

[6] = test system: Epidermal growth factor receptor (Homo sapiens), P00533 [L858R,T790M]; assay: Inhibition of human EGFR T790M/L858R double mutant assessed as residual activity at 1 uM relative to control; assay type: protein assay
[7] = target: Tyrosine-protein kinase receptor UFO (Homo sapiens) (UniProt P30530); assay: Inhibition of human AXL assessed as residual activity at 1 uM relative to control
Sequence of Tyrosine-protein kinase receptor UFO (Homo sapiens) (P30530 whole entry): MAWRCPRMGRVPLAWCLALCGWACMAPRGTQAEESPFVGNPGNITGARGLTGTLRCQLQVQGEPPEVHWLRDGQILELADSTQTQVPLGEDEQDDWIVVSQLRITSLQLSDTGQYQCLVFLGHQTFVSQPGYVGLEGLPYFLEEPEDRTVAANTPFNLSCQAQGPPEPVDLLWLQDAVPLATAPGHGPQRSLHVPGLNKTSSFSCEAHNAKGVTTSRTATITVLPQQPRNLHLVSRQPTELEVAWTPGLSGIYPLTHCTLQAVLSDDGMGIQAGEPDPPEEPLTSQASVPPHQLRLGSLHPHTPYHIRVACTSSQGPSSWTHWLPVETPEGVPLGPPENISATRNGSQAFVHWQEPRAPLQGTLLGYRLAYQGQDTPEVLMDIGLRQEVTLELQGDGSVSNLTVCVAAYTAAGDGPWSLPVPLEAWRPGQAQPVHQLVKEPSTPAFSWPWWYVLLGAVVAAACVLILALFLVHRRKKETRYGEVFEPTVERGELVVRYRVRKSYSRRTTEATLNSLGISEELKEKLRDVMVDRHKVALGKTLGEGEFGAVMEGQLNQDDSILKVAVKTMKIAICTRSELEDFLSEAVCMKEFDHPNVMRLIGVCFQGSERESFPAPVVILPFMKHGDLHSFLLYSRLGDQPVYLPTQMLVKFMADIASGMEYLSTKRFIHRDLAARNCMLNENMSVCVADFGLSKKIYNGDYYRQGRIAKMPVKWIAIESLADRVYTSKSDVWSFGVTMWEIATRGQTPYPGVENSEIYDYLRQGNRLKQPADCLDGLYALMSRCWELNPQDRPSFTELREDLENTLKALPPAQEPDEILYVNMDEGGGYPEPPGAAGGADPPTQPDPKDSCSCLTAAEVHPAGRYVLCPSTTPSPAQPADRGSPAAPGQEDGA

[8] = target: Fibroblast growth factor receptor 1 (Homo sapiens) (UniProt P11362); assay: Inhibition of human FGFR1 assessed as residual activity at 1 uM relative to control
[9] = target: CDK7/Cyclin H/MNAT1 (Homo sapiens) (UniProt P51946+P50613+P51948); assay: Inhibition of human CDK7/cyclin H/MAT1 assessed as residual activity at 1 uM relative to control; assay type: protein-complex assay
[10] = target: Tyrosine-protein kinase BTK (Homo sapiens) (UniProt Q06187); assay: Inhibition of human BTK assessed as residual activity at 1 uM relative to control
[11] = target: Hepatocyte growth factor receptor (Homo sapiens) (UniProt P08581); assay: Inhibition of human MET assessed as residual activity at 1 uM relative to control
[12] = target: Proto-oncogene tyrosine-protein kinase Src (Homo sapiens) (UniProt P12931); assay: Inhibition of human cSRC assessed as residual activity at 1 uM relative to control
Sequence of Proto-oncogene tyrosine-protein kinase Src (Homo sapiens) (P12931 2-536 limits assumed): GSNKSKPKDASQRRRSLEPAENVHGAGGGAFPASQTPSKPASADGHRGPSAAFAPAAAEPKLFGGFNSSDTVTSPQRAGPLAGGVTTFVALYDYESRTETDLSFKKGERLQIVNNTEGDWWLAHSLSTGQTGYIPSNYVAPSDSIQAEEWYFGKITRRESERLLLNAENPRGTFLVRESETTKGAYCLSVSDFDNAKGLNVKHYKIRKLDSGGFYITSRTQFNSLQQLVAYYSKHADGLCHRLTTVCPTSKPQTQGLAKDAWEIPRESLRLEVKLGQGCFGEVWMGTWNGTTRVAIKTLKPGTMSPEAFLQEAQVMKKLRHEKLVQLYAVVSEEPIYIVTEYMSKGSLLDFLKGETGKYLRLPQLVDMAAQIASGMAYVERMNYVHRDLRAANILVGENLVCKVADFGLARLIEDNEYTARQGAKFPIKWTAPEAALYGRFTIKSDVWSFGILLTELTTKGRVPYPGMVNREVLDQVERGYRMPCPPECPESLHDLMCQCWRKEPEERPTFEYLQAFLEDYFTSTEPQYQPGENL

[13] = target: T2, Serine/threonine-protein kinase Sgk1 (Homo sapiens) (UniProt O00141); assay: Inhibition of human SGK assessed as residual activity at 1 uM relative to control
T2 sequence (whole entry): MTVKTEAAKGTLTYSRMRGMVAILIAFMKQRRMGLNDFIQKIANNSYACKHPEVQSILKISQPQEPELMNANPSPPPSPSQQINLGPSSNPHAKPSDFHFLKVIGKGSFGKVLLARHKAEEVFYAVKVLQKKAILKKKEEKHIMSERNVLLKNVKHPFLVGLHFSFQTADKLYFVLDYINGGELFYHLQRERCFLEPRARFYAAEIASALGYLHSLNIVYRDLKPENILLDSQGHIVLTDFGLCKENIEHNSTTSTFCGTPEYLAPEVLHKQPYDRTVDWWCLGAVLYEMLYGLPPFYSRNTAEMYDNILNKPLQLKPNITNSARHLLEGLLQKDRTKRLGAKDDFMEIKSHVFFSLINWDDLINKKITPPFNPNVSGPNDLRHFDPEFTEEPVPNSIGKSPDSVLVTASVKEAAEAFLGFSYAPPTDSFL

[14] = target: T3, Serine/threonine-protein kinase Chk1 (Homo sapiens) (UniProt O14757); assay: Inhibition of human CHK1 assessed as residual activity at 1 uM relative to control
T3 sequence (whole entry): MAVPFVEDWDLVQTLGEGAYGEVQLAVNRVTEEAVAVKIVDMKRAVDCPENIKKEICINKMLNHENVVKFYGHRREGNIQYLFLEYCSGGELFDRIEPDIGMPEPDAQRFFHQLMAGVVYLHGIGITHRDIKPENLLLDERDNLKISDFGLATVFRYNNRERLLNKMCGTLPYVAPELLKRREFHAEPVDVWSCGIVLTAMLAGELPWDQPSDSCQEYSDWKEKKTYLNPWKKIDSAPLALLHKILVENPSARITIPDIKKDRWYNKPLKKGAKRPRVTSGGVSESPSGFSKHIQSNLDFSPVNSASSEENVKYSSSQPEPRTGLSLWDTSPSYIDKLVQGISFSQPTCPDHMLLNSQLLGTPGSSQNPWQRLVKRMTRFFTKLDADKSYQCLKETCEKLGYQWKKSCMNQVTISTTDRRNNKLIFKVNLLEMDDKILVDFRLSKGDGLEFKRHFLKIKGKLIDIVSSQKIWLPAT

[15] = target: Proto-oncogene tyrosine-protein kinase receptor Ret (Homo sapiens) (UniProt P07949); assay: Inhibition of human RET assessed as residual activity at 1 uM relative to control
Sequence of Proto-oncogene tyrosine-protein kinase receptor Ret (Homo sapiens) (P07949 whole entry): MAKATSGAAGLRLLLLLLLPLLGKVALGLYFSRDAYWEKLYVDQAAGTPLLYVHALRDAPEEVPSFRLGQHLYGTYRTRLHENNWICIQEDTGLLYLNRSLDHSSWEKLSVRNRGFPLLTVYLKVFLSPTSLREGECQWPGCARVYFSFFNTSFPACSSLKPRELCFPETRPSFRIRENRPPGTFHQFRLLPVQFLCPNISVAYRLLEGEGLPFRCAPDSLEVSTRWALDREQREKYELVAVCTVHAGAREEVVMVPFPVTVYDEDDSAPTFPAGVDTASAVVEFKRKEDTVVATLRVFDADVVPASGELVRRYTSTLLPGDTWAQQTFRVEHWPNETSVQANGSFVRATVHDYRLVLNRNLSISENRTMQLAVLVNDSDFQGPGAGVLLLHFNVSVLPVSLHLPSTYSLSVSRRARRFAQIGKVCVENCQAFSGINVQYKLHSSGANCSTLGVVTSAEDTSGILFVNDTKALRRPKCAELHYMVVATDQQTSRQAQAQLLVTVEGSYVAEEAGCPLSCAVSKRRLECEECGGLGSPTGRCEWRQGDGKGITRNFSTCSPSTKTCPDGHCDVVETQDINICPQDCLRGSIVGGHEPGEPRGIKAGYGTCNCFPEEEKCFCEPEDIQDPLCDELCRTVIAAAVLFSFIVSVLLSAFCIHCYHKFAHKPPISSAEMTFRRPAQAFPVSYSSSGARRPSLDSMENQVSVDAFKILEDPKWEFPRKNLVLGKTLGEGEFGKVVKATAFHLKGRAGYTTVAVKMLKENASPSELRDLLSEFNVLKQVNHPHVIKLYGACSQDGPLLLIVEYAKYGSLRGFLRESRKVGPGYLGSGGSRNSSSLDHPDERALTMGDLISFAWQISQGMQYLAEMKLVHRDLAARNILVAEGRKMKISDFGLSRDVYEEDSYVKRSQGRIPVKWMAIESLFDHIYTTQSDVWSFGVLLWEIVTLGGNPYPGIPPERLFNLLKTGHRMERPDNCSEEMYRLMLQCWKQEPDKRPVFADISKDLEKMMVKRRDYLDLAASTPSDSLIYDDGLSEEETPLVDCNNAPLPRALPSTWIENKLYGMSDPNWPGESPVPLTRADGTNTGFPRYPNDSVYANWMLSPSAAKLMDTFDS

[16] = target: Mitogen-activated protein kinase kinase kinase 9 (Homo sapiens) (UniProt P80192); assay: Inhibition of human MLK1 assessed as residual activity at 1 uM relative to control
[17] = target: Protein-tyrosine kinase 6 (Homo sapiens) (UniProt Q13882); assay: Inhibition of human BRK assessed as residual activity at 1 uM relative to control
Sequence of Protein-tyrosine kinase 6 (Homo sapiens) (Q13882 whole entry, looked up): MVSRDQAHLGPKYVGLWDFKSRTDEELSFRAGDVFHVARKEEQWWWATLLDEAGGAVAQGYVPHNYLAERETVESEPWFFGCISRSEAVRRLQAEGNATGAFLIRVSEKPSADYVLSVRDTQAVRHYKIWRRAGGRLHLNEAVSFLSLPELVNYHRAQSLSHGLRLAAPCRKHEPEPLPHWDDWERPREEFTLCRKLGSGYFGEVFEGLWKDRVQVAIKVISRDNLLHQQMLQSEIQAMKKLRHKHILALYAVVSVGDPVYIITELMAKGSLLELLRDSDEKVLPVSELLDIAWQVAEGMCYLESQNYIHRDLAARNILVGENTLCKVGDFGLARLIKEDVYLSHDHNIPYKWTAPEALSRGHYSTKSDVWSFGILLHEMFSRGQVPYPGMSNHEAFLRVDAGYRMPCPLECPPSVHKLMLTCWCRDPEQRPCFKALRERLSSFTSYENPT

[18] = target: Calcium/calmodulin-dependent protein kinase type II subunit beta (Homo sapiens) (UniProt Q13554); assay: Inhibition of human CaMK2beta assessed as residual activity at 1 uM relative to control
Sequence of Calcium/calmodulin-dependent protein kinase type II subunit beta (Homo sapiens) (Q13554 whole entry): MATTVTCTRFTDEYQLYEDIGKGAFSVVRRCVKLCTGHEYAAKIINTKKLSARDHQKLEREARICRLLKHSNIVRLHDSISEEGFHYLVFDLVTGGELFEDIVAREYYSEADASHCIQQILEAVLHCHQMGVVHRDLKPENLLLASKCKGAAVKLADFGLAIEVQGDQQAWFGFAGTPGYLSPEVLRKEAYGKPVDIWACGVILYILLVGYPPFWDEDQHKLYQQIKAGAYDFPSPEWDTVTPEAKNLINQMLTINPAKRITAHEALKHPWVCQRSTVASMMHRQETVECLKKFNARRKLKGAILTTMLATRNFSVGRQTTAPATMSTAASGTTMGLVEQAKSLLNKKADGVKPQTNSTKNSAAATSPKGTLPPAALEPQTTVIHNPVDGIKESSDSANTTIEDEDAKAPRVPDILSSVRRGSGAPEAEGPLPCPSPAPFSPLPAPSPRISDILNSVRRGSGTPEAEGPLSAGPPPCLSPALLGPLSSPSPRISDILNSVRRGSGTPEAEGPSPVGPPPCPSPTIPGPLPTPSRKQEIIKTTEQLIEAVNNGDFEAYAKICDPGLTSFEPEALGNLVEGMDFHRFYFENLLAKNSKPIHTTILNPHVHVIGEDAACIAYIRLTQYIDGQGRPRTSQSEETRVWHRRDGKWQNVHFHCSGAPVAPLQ

[19] = target: Serine/threonine-protein kinase mTOR (Homo sapiens) (UniProt P42345); assay: Inhibition of human mTOR assessed as residual activity at 1 uM relative to control

| SMILES | Activity [1] [%] | Activity [2] [%] | Activity [3] [%] | Activity [4] [%] | Activity [5] [%] | Activity [6] [%] | Activity [7] [%] | Activity [8] [%] | Activity [9] [%] | Activity [10] [%] | Activity [11] [%] | Activity [12] [%] | Activity [13] [%] | Activity [14] [%] | Activity [15] [%] | Activity [16] [%] | Activity [17] [%] | Activity [18] [%] | Activity [19] [%] |
| --- | --- | --- | --- | --- | --- | --- | --- | --- | --- | --- | --- | --- | --- | --- | --- | --- | --- | --- | --- |
| COc1ccc(-c2nc3cc(-c4csc(C(=O)NCC(C)(C)C)c4)cnc3[nH]2)cc1 | 103 | 100 | 87 | 101 | 91 | 94 | 103 | 94 | 100 | 100 | 114 | 85 | 82 | 103 | 10 | 37 | 102 | 98 | 102 |
| COc1ccc(-c2nc3cc(-c4csc(C(=O)NCCC(C)C)c4)cnc3[nH]2)cc1 | 95 | 104 | 83 | 88 | 101 | 76 | 98 | 91 | 95 | 93 | 111 | 47 | 78 | 90 | 7 | 23 | 112 | 97 | 110 |
| COc1ccc(-c2nc3cc(-c4csc(C(=O)NCC(C)C)c4)cnc3[nH]2)cc1 | 100 | 111 | 89 | 99 | 102 | 90 | 98 | 70 | 91 | 112 | 107 | 50 | 102 | 99 | 6 | 30 | 110 | 96 | 104 |
